Measurements as given in US11180615B2, “Cationic polyphosphazene compound, polyphosphazenes-drug conjugate compound and method for preparing same” (CNPHARM CO., LTD., priority 2016, dated 2021).

Columns and labels:
[1] = test system: SK-Ov3; experiment: In vitro cytotoxicity (SRB method), SK-Ov3; format: cell-based; conditions: SK-Ov3, mean ± SD, n = 3-4
From the text: (§1) Since the anticancer agent paclitaxel is well known to be clinically very efficacious against many different cancers, breast (MCF-7), ovarian (SK-OV3), non-small cell lung (A549) and stomach (SNU638) cancer cell lines were selected to test their in vitro cytotoxicity according to the literature method (SRB method) (Rita Song, et. al, J. Control. Release 105 (2005) 142-150).

[2] = test system: A-549; experiment: In vitro cytotoxicity (SRB method), A-549; format: cell-based; conditions: A-549, mean ± SD, n = 3-4
From the text: as §1

[3] = test system: SNU-638; experiment: In vitro cytotoxicity (SRB method), SNU-638; format: cell-based; conditions: SNU-638, mean ± SD, n = 3-4
From the text: as §1

[4] = test system: MCF-7; experiment: In vitro cytotoxicity (SRB method), MCF-7; format: cell-based; conditions: MCF-7, mean ± SD, n = 3-4
From the text: as §1

[5] = test system: non-small cell lung cancer cell line A549; conditions: versus Taxotere
[6] = test system: gastric cancer cell line MKN-28; experiment: Nude mouse xenograft trial, MKN-28
Method: Both tumor size and body weight of each were measured from the beginning of first injection to 40 days.

[7] = Biodegradability in buffer at 37° C. followed by GPC; format: physicochemical; conditions: buffer pH 5.4, 37° C.
Method: Instrument: Yonglin GPC system
Column: Waters Hydrogel HR column (1×guard, 1×linear, 2×HR2)
Eluent: water/acetonitrile (8:2) (0.5% NaNO3)
Two sample solutions were prepared by dissolving the polyphosphazene-paclitaxel conjugate of Example 20 (250 mg) in a buffer solution (5 ml) at pH=5.4 and in another buffer solution (5 ml) at pH=7.4. The two sample solutions were slowly shaken at 37° C. in a water bath and 500 μl of the sample solution was taken at predetermined schedule (0.5, 1, 2, 4, 6, 8, 16 day after incubation) and freeze-dried. The dried samples were dissolved in tetrahydrofuran involving 0.2% t-butyl ammonium bromide and subjected to gel permeation chromatography (GPC).

[8] = Critical micelle concentration by pyrene fluorescence method; format: physicochemical; conditions: aqueous pyrene solution 6×10^−7 M
Method: As above-mentioned, the polyphosphazene-docetaxel conjugate of the present invention forms polymeric micelles in aqueous solution. In order for such polymer-drug conjugate to be clinically useful for IV injection, the solution stability of the micelles self-assembled from the polymer-drug conjugate is critical. Such a micelle stability is expressed as “critical micelle concentration (CMC),” which is measured by several methods, but the most widely used method is “pyrene fluorescence method” (K. Kalyanasundoram, et. al, J. Am. Chem. Soc. […], 99, 2039). According to the method the CMC value of the polyphosphazene-docetaxel conjugate of the present invention was measured as in the following:
An aqueous pyrene solution (6×10^−7 M) was prepared and using this solution a series of sample solutions of the polyphosphazene-paclitaxel conjugate of Example 20 was prepared in the concentration range of 5.0-0.0005% (w/w). Fluorescence spectra were measured at 339 nm (Iex) and 390 nm (Iem) and then from the ratio of the fluorescence intensities of band I and band III, the value of CMC was determined as shown in FIG. 4.

## [NP(MPEG550)1.50(GlyLysEt-2′-succinylpaclitaxel)0.50]n [Example 21]
[1]
  IC50: 6960 ± 142 nM
[2]
  IC50: 1540 ± 41.8 nM
[3]
  IC50: 5411 ± 46.6 nM
[4]
  IC50: 317 ± 141 nM

## CC(=O)O[C@H]1C(=O)[C@@]2(C)[C@H]([C@H](OC(=O)c3ccccc3)[C@]3(O)C[C@H](OC(=O)[C@H](O)[C@@H](NC(=O)c4ccccc4)c4ccccc4)C(C)=C1C3(C)C)[C@]1(OC(C)=O)CO[C@@H]1C[C@@H]2O [Paclitaxel, reference compound]
[1]; Homo sapiens, SK-OV-3
  IC50: 15.3 ± 2.6 nM
[2]; Homo sapiens, A549
  IC50: 6.63 ± 2.84 nM
[3]; Homo sapiens
  IC50: 10.9 ± 0.9 nM
[4]; Homo sapiens, MCF7
  IC50: 3.47 ± 0.62 nM

## [NP(MPEG550)1.5(LysEt-2′-aconitic-docetaxel)0.5]n [Example 14]
[5]
  antitumor activity against A549 tumor: even better antitumor activity than the reference Taxotere
[6]; 10 and 20 mg/kg as docetaxel, day 1, 5, 9, 40 days, versus Taxotere 10 mg/kg
  antitumor activity against MKN-28 gastric tumor: strong antitumor activity equivalent to Taxotere
[6]; judged from body weight, MKN-28 xenograft mice
  systemic toxicity versus Taxotere: lower systemic toxicity

## [NP(MPEG550)1.50(LysEt)0.2(LysEt-2′-succinylpaclitaxel)0.3]n [Example 20]
[7]
  degradation of polyphosphazene backbone in acidic media: continuously degradable in acidic media
[1]
  IC50: 588 ± 47.8 nM
[2]
  IC50: 170 ± 48.3 nM
[3]
  IC50: 364 ± 202 nM
[4]
  IC50: 165 ± 86.5 nM
[8]
  critical micelle concentration (CMC): 41 mg/L
